From patent US20100016232A1, “Treatment Of Inflammatory Diseases With Mammal Beta Defensins” (Novozymes A/S, priority 2008, published 2010)
Marks after values point to notes of the source that are not given here. Where no end group is shown, it is not given here.

Experiments:
[1] = test system: TNF-alfa secretion from PBMC; test: TNF-alfa secretion from PBMC, ELISA; format: cell-based, human
Method: (§1) Peripheral blood was drawn from healthy volunteers (with approval from the relevant ethical committee in Denmark). Heparinized blood was diluted 1/1 v/v with RPMI and were subjected to Ficoll density centrifugation within 2 h of drawing. Plasma was collected from the top from individual donors and was kept on ice until it was used at 2% in the culture medium (autologous culture medium). Isolated PBMC were resuspended in autologous culture medium and seeded in 96-well culture plates with 255.000 cells per well in a total of 200 μl. […] The concentrations used for stimulation were optimized on 3 different donors in initial experiments, for LPS two different concentrations were used to be sure to be on a cytokine level that is possible to modulate. In some experiments PBMC were treated with Dexamethason and Indomethacin alone and together with LPS or LTA as a control on downregulation of inflammatory cytokines. The supernatants were collected after incubation at 37° C. for 24 hours, and stored at −80° C. until cytokine measurement. Viability was measured by Alamar Blue (Biosource, DALL 1100) in all experiments and in some cases also by MTS (Promega) according to manufacturer's instruction and was in some experiments also judged by counting of the cells by a Nucleocounter.
(§2) Cytokine production in supernatants was measured by flow cytometry with a human inflammation cytometric bead array (CBA) according to manufacturer's instructions (BD) on a FACSarray flow cytometer. The following cytokines were measured: IL-8, IL-1β, IL-10, TNF, IL-12 p70, IL-6. In some experiments, cytokines were measured by ELISA kits from R&D systems (IL-10, TNF-α, IL-1β) according to the manufacturer' instruction.
In Tables 6, 7 and 8, supernatants from another donor were analysed for cytokines by ELISA instead of by a cytometric bead array by flowcytometry and here the same were observed, although the sensitivity of the assay is lower and the detection limit much higher and therefore the effects were not as significant.

[2] = test system: TNF production in supernatant from a human monocyte cell line (MUTZ-3); test: TNF production, human monocyte cell line MUTZ-3; format: cell-based
Method: The human myeloid leukaemia-derived cell line MUTZ-3 (DSMZ, Braunschweig, Germany) was maintained in a-MEM (Sigma M4526), supplemented with 20% [volume/volume (v/v)] fetal bovine serum (Sigma F6178) and 40 ng/ml rhGM-CSF (R&D Systems 215-GM-050).
as §2

IL-10, dendritic cells = test: IL-10 from dendritic cells (MUTZ-3 derived) stimulated with LPS or LTA; format: cell-based, human; conditions: dendritic cells stimulated with hBD2 and LPS or hBD2 and LTA; results not shown
Method: To generate a dendritoid cell line, the human myeloid leukaemia cell lines MUTZ-3 (1×10^5 cells/ml) was differentiated for 7 days in the presence of rhGM-CSF (150 ng/ml) and rhIL-4 (50 ng/ml) into immature DCs. Medium was exchanged every 2-3 days.
as §2

[3] = test system: DSS-induced colitis in the mouse; test: 10-day DSS-induced colitis, Disease Activity Index (Example 5); format: in vivo
Method: Animals were divided into 5 experimental groups.
Colitis was induced in mice by supplementing their drinking water with DSS 2% for 7 days.
Daily clinical assessment of DSS-treated animals was carried out, with the calculation of a validated clinical Disease Activity Index (DAI) ranging from 0 to 4 according to the following parameters: stool consistency, presence or absence of rectal bleeding and weight loss:
Bodyweight loss was calculated as the percent difference between the original bodyweight (Day 1) and the actual bodyweight on each experimental day (2-10).
The appearance of diarrhoea is defined as mucus/faecal material adherent to anal fur. Rectal bleeding is defined as diarrhoea containing visible blood/mucus or gross rectal bleeding. The maximum score of the DAI each day is 12.

[4] = test system: IL-1β and IL-8 and IL-6, dendritic cells; test: Cytokines from dendritic cells stimulated with a cytokine cocktail; format: cell-based, human; conditions: cytokine cocktail together with hBD2 vs cocktail alone, results not shown
Text: Obviously no effect on TNF could be analyzed, due to stimulation with TNF-α (results not shown).

[5] = test system: DSS-induced colitis in the mouse; test: 10-day DSS-induced colitis, colon histological score (Example 6); format: in vivo
Method: Two sections (proximal and distal) of colon were taken from each animal and preserved in neutral buffered formalin for subsequent histological analysis (haematoxylin and eosin staining) according to the following scoring system:
Example 6 was carried out essentially as described in Example 5. The differences are indicated below.
Animals were divided into 9 experimental groups.
Two sections (proximal and distal) of colon were taken from each animal, processed for histological analysis (haematoxylin and eosin staining), and scored by a blind observer according to the scoring system described above.

PBMC = PBMC viability, MTS assay; format: cell-based, human; conditions: 24 h
Method: as §1

[6] = Group F, 0.1 mg/kg twice daily i.v. + s.c.
[7] = Group G, 0.1 mg/kg i.v. every 2. day

## hBD2: human beta defensin 2, SEQ ID NO:2; produced recombinantly in E. coli (Example 1); hBD2 of Tables 16-18 was prepared by chemical synthesis (GIGDPVTCLKSGAICHPVFCPRRYKQIGTCGLPGTKCCKKP; ends and bridges not checked; cysteine pairing not given here; listed as Homo sapiens)
[1]; LPS 0.6 ng/ml, hBD2 1 μg/ml
  TNF-α: 0.70 ng/mL
[1]; LPS 0.6 ng/ml, hBD2 10 μg/ml
  TNF-α: 0.59 ng/mL
[1]; LPS 0.6 ng/ml, hBD2 100 μg/ml
  TNF-α: 0.41 ng/mL
[1]; LPS 20 ng/ml, hBD2 1 μg/ml
  TNF-α: 1.18 ng/mL
[1]; LPS 20 ng/ml, hBD2 10 μg/ml
  TNF-α: 0.49 ng/mL
[1]; LPS 20 ng/ml, hBD2 100 μg/ml
  TNF-α: 0.53 ng/mL
[1]; LTA 1.25 μg/ml, hBD2 1 μg/ml
  TNF-α: 0.65 ng/mL
[1]; LTA 1.25 μg/ml, hBD2 10 μg/ml
  TNF-α: 0.27 ng/mL
[1]; LTA 1.25 μg/ml, hBD2 100 μg/ml
  TNF-α: 0.21 ng/mL
[2]; LPS 1.5 μg/ml, hBD2 1 μg/ml
  TNF: 6.61 pg/mL
[2]; LPS 1.5 μg/ml, hBD2 10 μg/ml
  TNF: 3.93 pg/mL
[2]; LPS 1.5 μg/ml, hBD2 100 μg/ml
  TNF: 3.93 pg/mL
[2]; LTA 1.5 μg/ml, hBD2 1 μg/ml
  TNF: 1.75 pg/mL
[2]; LTA 1.5 μg/ml, hBD2 10 μg/ml
  TNF: 3.76 pg/mL
[2]; LTA 1.5 μg/ml, hBD2 100 μg/ml
  TNF: 2.64 pg/mL
[2]; Medium, hBD2 1 μg/ml
  TNF: 2.21 pg/mL
[2]; Medium, hBD2 10 μg/ml
  TNF: 2.60 pg/mL
[2]; Medium, hBD2 100 μg/ml
  TNF: 0.00 pg/mL
IL-10, dendritic cells
  IL-10: induced
[3]; 0.1 mg/kg i.v. daily, Day 1
  DAI score: 0.00
[3]; 0.1 mg/kg i.v. daily, Day 2
  DAI score: 0.20
[3]; 0.1 mg/kg i.v. daily, Day 3
  DAI score: 0.80
[3]; 0.1 mg/kg i.v. daily, Day 4
  DAI score: 2.90
[3]; 0.1 mg/kg i.v. daily, Day 5
  DAI score: 2.80
[3]; 0.1 mg/kg i.v. daily, Day 6
  DAI score: 3.20
[3]; 1 mg/kg i.v. daily, Day 1
  DAI score: 0.00
[3]; 1 mg/kg i.v. daily, Day 2
  DAI score: 0.00
[3]; 1 mg/kg i.v. daily, Day 3
  DAI score: 0.22
[3]; 1 mg/kg i.v. daily, Day 4
  DAI score: 2.22
[3]; 1 mg/kg i.v. daily, Day 5
  DAI score: 2.44
[3]; 1 mg/kg i.v. daily, Day 6
  DAI score: 2.89
[3]; 1 mg/kg i.v. daily, Day 7
  DAI score: 2.22
[3]; 1 mg/kg i.v. daily, Day 8
  DAI score: 3.67
[3]; 1 mg/kg i.v. daily, Day 9
  DAI score: 5.22
[3]; 10 mg/kg i.v. daily, Day 1
  DAI score: 0.00
[3]; 10 mg/kg i.v. daily, Day 2
  DAI score: 0.60
[3]; 10 mg/kg i.v. daily, Day 3
  DAI score: 1.00
[3]; 10 mg/kg i.v. daily, Day 4
  DAI score: 3.67
[3]; 10 mg/kg i.v. daily, Day 5
  DAI score: 3.11
[3]; 10 mg/kg i.v. daily, Day 6
  DAI score: 3.22
[3]; 10 mg/kg i.v. daily, Day 7
  DAI score: 2.11
[3]; 10 mg/kg i.v. daily, Day 8
  DAI score: 4.11
[3]; 10 mg/kg i.v. daily, Day 9
  DAI score: 6.78
[3]; 10 mg/kg i.v. daily, Day 10
  DAI score: 7.33
[4]
  IL-1β and IL-8 and IL-6: downregulating effect
[5]; Group B, 1 mg/kg i.v.
  Histology Score Distal Colon, mean: 3.56
  Histology Score Proximal Colon, mean: 1.78
[5]; Group C, 0.1 mg/kg i.v.
  Histology Score Distal Colon, mean: 3.14*
  Histology Score Proximal Colon, mean: 1.71
[5]; Group D, 0.01 mg/kg i.v.
  Histology Score Distal Colon, mean: 3.10**
  Histology Score Proximal Colon, mean: 1.70
[5]; Group E, 0.001 mg/kg i.v.
  Histology Score Distal Colon, mean: 3.56
  Histology Score Proximal Colon, mean: 1.44
[5]; [6]
  Histology Score Distal Colon, mean: 2.90***
  Histology Score Proximal Colon, mean: 1.30*
[5]; [7]
  Histology Score Distal Colon, mean: 3.56
  Histology Score Proximal Colon, mean: 1.56
PBMC; LPS 0.6 ng/ml, hBD2 1 μg/ml
  Viability, MTS: 1.5 Abs 490 nm
PBMC; LPS 0.6 ng/ml, hBD2 10 μg/ml
  Viability, MTS: 2.0 Abs 490 nm
PBMC; LPS 0.6 ng/ml, hBD2 100 μg/ml
  Viability, MTS: 1.6 Abs 490 nm
PBMC; LPS 20 ng/ml, hBD2 1 μg/ml
  Viability, MTS: 1.6 Abs 490 nm
PBMC; LPS 20 ng/ml, hBD2 10 μg/ml
  Viability, MTS: 1.8 Abs 490 nm
PBMC; LPS 20 ng/ml, hBD2 100 μg/ml
  Viability, MTS: 1.9 Abs 490 nm
PBMC; Medium, hBD2 1 μg/ml
  Viability, MTS: 1.3 Abs 490 nm
PBMC; Medium, hBD2 10 μg/ml
  Viability, MTS: 1.5 Abs 490 nm
PBMC; Medium, hBD2 100 μg/ml
  Viability, MTS: 1.2 Abs 490 nm
